Measurements published in PubChem BioAssay (NCI).
“And” between values parts separate entries of the source, which are not always exact repeats. Equal values may be shown once.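 Results reflect a 48-hour exposure of cells in 96-well plates to compound at five concentrations. At the GI50, growth is halved. TGI marks complete inhibition of growth.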

Experiments:
Assay in all cases: NCI tumour cell line growth inhibition, 48 h
LOX IMVI melanoma = system: LOX IMVI melanoma
A498 renal = system: A498 renal
SR leukemia = system: SR leukemia
NCI-H460 lung = system: NCI-H460 lung
EKVX NSCLC = system: EKVX NSCLC
SF-268 CNS = system: SF-268 CNS
SK-MEL-2 melanoma = system: SK-MEL-2 melanoma
NCI-H522 lung = system: NCI-H522 lung
MDA-MB-231 breast = system: MDA-MB-231 breast
DU-145 prostate = system: DU-145 prostate

Compound | TGI (LOX IMVI melanoma) | TGI (A498 renal) | TGI (SR leukemia) | TGI (NCI-H460 lung) | TGI (EKVX NSCLC) | TGI (SF-268 CNS) | TGI (SK-MEL-2 melanoma) | TGI (NCI-H522 lung) | GI50 (LOX IMVI melanoma) [µM] | GI50 (NCI-H522 lung) [µM] | GI50 (NCI-H460 lung) [µM] | GI50 (MDA-MB-231 breast) [µM] | TGI (MDA-MB-231 breast) [µM] | GI50 (EKVX NSCLC) | GI50 (SF-268 CNS) [µM] | GI50 (DU-145 prostate) [µM] | TGI (DU-145 prostate) [µM] | GI50 (SK-MEL-2 melanoma) [µM] | GI50 (A498 renal) [µM] | GI50 (SR leukemia) [µM]
CNC(=S)OCCC(C)CCCC(C)C (stereo not drawn) | 26.2 µM | 30 µM | 31.9 µM | 35.2 µM | 31.7 µM | 30.7 µM | 26.7 µM |  |  |  |  |  |  |  |  |  |  |  |  | 
CCOC(=O)CCC1(C(=O)OCC)CCCCC1=O (stereo not drawn) | > 100 µM | > 100 µM |  | > 100 µM | > 100 µM | > 100 µM | > 100 µM | > 100 µM |  |  |  |  |  |  |  |  |  |  |  | 
O=C(CCc1nc(=S)[nH][nH]1)Nc1cc(Cl)c(Cl)cc1Cl | > 100 µM | > 100 µM |  | > 100 µM |  | > 100 µM | > 100 µM | > 100 µM |  |  |  |  |  |  |  |  |  |  |  | 
CN(C)N=Nc1ccc(C(N)=O)cc1 | > 100 µM | > 100 µM | > 100 µM | > 100 µM | > 100 µM | > 100 µM | > 100 µM | > 100 µM |  |  |  |  |  |  |  |  |  |  |  | 
Nc1ccccc1S(=O)(=O)N(CC(=O)O)c1ccccc1 | > 100 µM | > 100 µM |  | > 100 µM | > 100 µM | > 100 µM | > 100 µM | > 100 µM |  |  |  |  |  |  |  |  |  |  |  | 
CCOC1Oc2ccccc2C(=O)/C1=C/Nc1ccc(C(C)=O)cc1 (stereo not drawn) | 58.5 µM |  |  | > 100 µM | 93.6 µM | > 100 µM | > 100 µM | 87.3 µM | 18.9 | 27.1 | 32.8 | 20 | 47.8 | 25.4 µM | 33.7 | 29.6 | > 100 | 40.1 |  | 
Nc1nc(-n2c(-c3ccccc3)nc3c(Br)cc(Br)cc3c2=O)nnc1-c1cccc(Cl)c1Cl | 37.2 µM | 56.5 µM |  | > 100 µM | > 100 µM | > 100 µM | > 100 µM | > 100 µM | 4.06 | 20.8 | 6.92 | 4.22 | 18.3 | 20.2 µM | 20.3 | 27.3 | > 100 | 83.8 | 15.4 | 
NC(=O)NO.O.O.O.O.O.O.O.O.O.O.O.[Ge].[Ge].[Ge].[Ge].[Ge].[O]=[Ge].[O]=[Ge].[O]=[Ge].[O]=[Ge].[O]=[Ge][OH] | > 100 µM | > 100 µM | > 100 µM | > 100 µM | > 100 µM | > 100 µM | > 100 µM | > 100 µM |  |  |  |  |  |  |  |  |  |  |  | 
Cc1cnc(NCCCN(C)C)c2c1[nH]c1ccc3cc(O)ccc3c12 | 1.37 µM | 3.71 µM |  | 1.25 µM | 4.34 µM | 2.07 µM | 2.47 µM | 0.624 µM |  |  |  |  | 2.83 |  |  |  | 4.03 |  |  | 
COC(=O)C1(C(C)C)CCc2c(OC)ccc(OC)c2C1=O (stereo not drawn) | > 100 µM | > 100 µM |  | > 100 µM | > 100 µM | > 100 µM | > 100 µM | > 100 µM |  |  |  |  |  |  |  |  |  |  |  | 
CCC[CH2][Sn]([CH2]CCC)([S]c1cccc2cccnc12)[S]c1cccc2cccnc12 | 0.359 µM | 0.6 µM |  | 0.356 µM | 1.45 µM |  |  |  | 0.175 |  | 0.151 |  |  | 0.336 µM |  |  |  |  | 0.254 | 
CC1(C(=O)O)CCC[C@@]2(C)C1CC[C@@]1(C)c3cocc3CCC21 (stereo partly drawn) | > 100 µM | > 100 µM | > 100 µM | > 100 µM | > 100 µM | > 100 µM | > 100 µM |  |  |  |  |  |  |  |  |  |  |  |  | 
O=[N+]([O-])c1cccc(-c2csc(NNC3=NC/C(=C/c4ccc5c(c4)OCO5)S3)n2)c1 | > 100 µM | 37 µM |  | > 100 µM | 41 µM | 69 µM | 56.5 µM | 42.9 µM |  |  |  |  | 93.9 |  |  |  | > 100 |  |  | 
CCCCCCCCCCCCCC(=O)OC(/C=C/C(C)C)C(O)C(O)C(OC)C(=O)NC1CCCCN(C)C1=O (stereo not drawn) | 6.53 µM and > 49 µM | 32.5 µM and > 49 µM | 4.78 µM and 5.75 µM | 5.79 µM and > 49 µM | 17.3 µM and > 49 µM | 8.63 µM and > 49 µM | 9.12 µM and > 49 µM | 6.67 µM and > 49 µM |  |  |  |  |  | 5.01 µM and 15.7 µM |  |  |  | > 49 | > 49 | 1.12
C1=C2/CC[C@H](Sc3ccccc3)C2C2(CCCCC/1)OCCO2 (stereo partly drawn) | 28.9 µM |  | > 100 µM | 73.9 µM | > 100 µM | > 100 µM | 32.7 µM |  |  |  |  |  |  |  |  |  |  |  |  | 
O=C(CCc1nc(=S)[nH][nH]1)Nc1ccc(Cl)c(Cl)c1 |  | > 100 µM | > 100 µM | > 100 µM | > 100 µM | > 100 µM | 31.2 µM | 72.1 µM |  |  |  |  |  |  |  |  |  |  |  | 
COc1cc2cc(OC)c3cc4c(cc3c2c(OC)c1OC)OCO4 | 31 µM | 97.5 µM | 82.6 µM | 52 µM | > 92 µM | > 100 µM | > 100 µM | 56.6 µM |  |  |  |  |  |  |  |  |  |  |  | 
OCC1=CC(NC2CC(CO)C(O)C(O)C2O)C(O)C(O)C1O (stereo not drawn) | > 100 µM |  |  | > 100 µM | > 100 µM |  |  | > 100 µM |  |  |  |  |  |  |  |  |  |  |  | 
COC(=O)/C(C#N)=C1\NC(=O)c2ccccc21 | > 100 µM | > 100 µM | > 100 µM | > 100 µM | > 100 µM | > 100 µM |  | > 100 µM |  |  |  |  |  |  |  |  |  |  |  | 
COC(=O)CC[N+]1=CCC(c2ccccc2)(c2ccccc2)O1 |  | > 100 µM |  | > 100 µM | > 100 µM | > 100 µM | > 100 µM | > 100 µM |  |  |  |  | > 100 |  |  |  | > 100 |  |  | 
CCN1CCN(Cc2ccc(NC(=O)c3cccc(C#Cc4cccc5[nH]nc(N)c45)c3)cc2C(F)(F)F)CC1 |  | 1.07 µM | 0.732 µM | 1.66 µM | 2.73 µM | 2.01 µM | 1.34 µM |  |  |  | 0.39 | 0.12 | 0.573 | 1.41 µM | 0.62 | 0.419 | 1.68 | 0.352 | 0.108 | 0.238
Cc1cc(NS(=O)(=O)c2ccc(Nc3c4ccccc4nc4c(C(=O)N5CCN(CCOS(C)(=O)=O)CC5)cccc34)cc2)no1 |  | > 100 µM |  | > 100 µM |  | > 100 µM | > 100 µM |  |  |  |  |  |  |  |  |  |  |  |  | 
COc1ccc(CC2c3cc4c(cc3CCN2C)OCO4)c(C=O)c1OC (stereo not drawn) | > 100 µM | > 100 µM |  | > 100 µM | > 100 µM | > 100 µM | > 100 µM | > 100 µM |  |  |  |  | > 100 |  |  |  | > 100 |  |  | 
